Data: patent US20170205395A1, “METHODS FOR PROVIDING PERSONALIZED MEDICINE TEST EX VIVO FOR HEMATOLOGICAL NEOPLASMS” (priority 2009, published 2017)
Read-outs that look alike come from different tables or passages of the source.

Assays:
[1] = system: malignant CLL cells; format: cell-based; conditions: for ex vivo efficacy in killing malignant cells compared with approved cytotoxic drugs: CLL ex vivo samples, FIG. 6; for induction of apoptosis after 24 hours: CLL whole blood samples, 24 hours incubation, FIG. 8; for ex vivo patient response: 30 μM; for ability of SSRIs to induce apoptosis in malignant CLL cells: FIG. 9
[2] = system: patients with Chronic Lymphocytic Leukemia; conditions: cited from earlier work
[3] = system: T and NK cells; test: Ex vivo Annexin V flow cytometry apoptosis assay in CLL whole blood, non-malignant cells; format: cell-based, human; conditions: approximately 30 μM, whole blood sample from a CLL patient, FIG. 7
[4] = system: MOLT-4 cells; test: Apoptosis ELISA (one step sandwich ELISA of histone-complexed DNA fragments); format: cell-based, human; conditions: 24 hours, FIG. 20
Description: The one step sandwich ELISA is based in the quantification of histone-complexed DNA fragments (mono- and oligonucleosomes) out of the cytoplasm of cells after the induction of apoptosis or when released from necrotic cells.

[5] = system: active caspase-3 in MOLT-4 cells; test: Active caspase-3 determination by Western blot; format: cell-based, human; conditions: 24 hours, FIG. 21
Experimental: Caspase-3 activation was determined using a Western blot of extracts from two acute lymphoblastic cell lines (TOM-1 and MOLT-4) exposed to increased concentrations of sertraline. […] Active caspase-3 is a protease that serves as a marker of apoptosis.

[6] = CLL sample, maximum concentrations, cyclophosphamide tested as its metabolite maphosphamide, FIG. 22

With `COc1ccc(CCN2CCC(Nc3nc4ccccc4n3Cc3ccc(F)cc3)CC2)cc1` [astemizole] the “ex vivo efficacy in killing malignant cells compared with approved cytotoxic drugs” value [1] was “ex vivo efficacy similar to that of the approved cytotoxic drugs”.
For `O=C(O)CCCc1ccc(N(CCCl)CCCl)cc1` [chlorambucil], the “induction of apoptosis by the drug alone” value ([1]; CLL patient sample, low concentrations, lower curve of FIG. 11) is listed as “did not induce much apoptosis”, the “induction of apoptosis after 24 hours” value [1] is listed as roughly 45% and the “% of patients responding” value ([2]; CLL patients with ITRT result DI (Drug Intermediate)) is listed as 66.3 (92) %. For the same compound, the “% of patients responding” value ([2]; CLL patients with ITRT result DR (Drug Resistant)) was 37.6 (24) %, the “% of patients responding” value ([2]; CLL patients with ITRT result DS (Drug Sensitive)) was 85.1 (94) % and the “% of patients responding” value ([2]; all CLL patients (Total)) was 71.5 (210) %.
For `O=P1(N(CCCl)CCCl)NCCCO1` (centres unmarked) [cyclophosphamide], the “ex vivo efficacy (resistant / sensitive)” value [1] was “resistant”.
For `COc1cccc2c1C(=O)c1c(O)c3c(c(O)c1C2=O)C[C@@](O)(C(=O)CO)C[C@@H]3O[C@H]1C[C@H](N)[C@H](O)[C@H](C)O1` [doxorubicin], the “ex vivo patient response” value ([1]; the two patients denoted by a star, FIG. 4) was “very effective”.
In the case of `Nc1nc(F)nc2c1ncn2[C@@H]1O[C@H](CO)[C@@H](O)[C@@H]1O` [fludarabine], the “induction of apoptosis after 24 hours” value [1] is reported as “approximately 40%”.
In the case of `CNCCC(Oc1ccc(C(F)(F)F)cc1)c1ccccc1` (centres unmarked) [fluoxetine], the “ex vivo efficacy in killing malignant cells compared with approved cytotoxic drugs” value [1] is reported as “ex vivo efficacy similar to that of the approved cytotoxic drugs” and the “ability of SSRIs to induce apoptosis in malignant CLL cells” value (shortened to “ability of SSRIs to induce apoptosis”) [1] is reported as “induce apoptosis similarly to clinically approved cytotoxic drugs”.
In the case of `COCCCC/C(=N\OCCN)c1ccc(C(F)(F)F)cc1` [fluvoxamine], the “ability of SSRIs to induce apoptosis” value [1] is reported as “only 3 (paroxetine, fluoxetine, and sertraline) induce apoptosis similarly”.
For `N=C(N)N/N=C/c1c(Cl)cccc1Cl` [guanabenz], the “ex vivo efficacy in killing malignant cells compared with approved cytotoxic drugs” value [1] was “ex vivo efficacy similar to that of the approved cytotoxic drugs”.
In the case of `O=C1c2c(O)ccc(O)c2C(=O)c2c(NCCNCCO)ccc(NCCNCCO)c21` [mitoxantrone], the “ex vivo patient response” value ([1]; patients P1.0105, P2.0019 and P2.035, FIG. 4) is reported as “extreme resistance ex vivo”, the “ex vivo efficacy (resistant / sensitive)” value [1, 6] is reported as “resistant” and the “induction of apoptosis after 24 hours” value [1] is reported as roughly 50%.
With `COc1ccc2[nH]c([S+]([O-])Cc3ncc(C)c(OC)c3C)nc2c1` (centres unmarked) [omeprazole] the “apoptotic rate (Annexin V positive cells) compared with cytotoxic agents” value ([1]; sample of one CLL patient, FIG. 12) was “showed similar apoptotic rates as the cytotoxic agents”.
For `Fc1ccc([C@@H]2CCNC[C@H]2COc2ccc3c(c2)OCO3)cc1` [paroxetine], the “ex vivo efficacy in killing malignant cells compared with approved cytotoxic drugs” value [1] was “ex vivo efficacy similar to that of the approved cytotoxic drugs”, the “ability of SSRIs to induce apoptosis” value [1] was “induce apoptosis similarly to clinically approved cytotoxic drugs” and the “apoptosis in leukemic cells” value ([1]; approximately 30 μM, whole blood sample from a CLL patient, FIG. 7) was roughly 100%. For the same compound, the “apoptosis in T and NK cells” value [3] was 15%.
For `CN[C@H]1CC[C@@H](c2ccc(Cl)c(Cl)c2)c2ccccc21` [sertraline], the “ex vivo efficacy in killing malignant cells compared with approved cytotoxic drugs” value [1] was “ex vivo efficacy similar to that of the approved cytotoxic drugs”, the “potentiation of chlorambucil-induced apoptosis” value ([1]; CLL patient sample, sub-maximal dose of sertraline added to chlorambucil, upper curve of FIG. 11) was “greatly enhanced the level of apoptosis” and the “time to eliminate all malignant cells” value ([1]; CLL sample, FIG. 28) was no more than 24 h. For the same compound, the “incubation with the sample required to induce maximal apoptosis” value ([1]; CLL sample, drug washed away, apoptosis measured at 24 or 48 hours, FIG. 28) was 30 min, the “induction of apoptosis after 24 hours” value [1] was “more than 90%” and the “ability of SSRIs to induce apoptosis” value [1] was “induce apoptosis similarly to clinically approved cytotoxic drugs”. For the same compound, the “increase of the Apoptosis Index” value [4] was “up to 7 fold” and the “induction of active caspase-3” value [5] was “dramatically induced active caspase-3”.
In the case of `CN(C)C/C=C(/c1ccc(Br)cc1)c1cccnc1` [zimelidine], the “ability of SSRIs to induce apoptosis” value [1] is reported as “only 3 (paroxetine, fluoxetine, and sertraline) induce apoptosis similarly”.
For “rituximab: antibody approved for CLL treatment”, the “ex vivo efficacy (resistant / sensitive)” value [1, 6] was “resistant”.
